In patent US20090012085A1, “DOSAGE FORMS AND METHODS OF TREATMENT USING A TYROSINE KINASE INHIBITOR” (priority 2005, published 2009):
Like-named read-outs stand apart in the source and are kept apart here.

Test: Phase I dose-escalating study, plasma pharmacokinetics in patients with solid tumor
Format: in vivo, human
Conditions: for Tmax: read-out: tmax, mean (% CV); for concentration at 4 h: nominal time 4 h; for concentration at 12 h: nominal time 12 h; for accumulation of the drug with continuous dosing: plasma exposures on Day 28 of dosing, compared to 4/1 schedule
Method: Cmax values, or maximum total plasma concentrations, of a compound of formula 1 can be measured according to techniques well known to those skilled in the art. For example, after a compound of formula 1 has been administered to a mammal, blood samples can be taken at fixed time points over a period of time (e.g. 24 hours) and the serum or plasma concentration of compound of formula 1 can be measured using standard analytical techniques known in the art. In vivo determinations Cmax can then be made by plotting the serum or plasma concentration of compound of formula 1 along the ordinate (y-axis) against time along the abscissa (x-axis).
The maleate salt of compound 1 was administered to human patients with solid tumor malignancies not amenable to conventional therapies in a Phase I dose-escalating multicenter study. The types of tumor malignancies included colorectal carcinoma, renal cell carcinoma, esophageal carcinoma, thymus carcinoma, mastocytosis, lung cancer and multiple endocrine neoplasia type II. Patients were treated in cohorts of 6 with escalating QD (once per day) doses of the maleate salt of compound 1 under fasting conditions. Each study cycle of 5 weeks consisted of 4 weeks of treatment followed by 1 week of rest (4/1 schedule), or continuous dosing without any rest period.
Full pharmacokinetic profiles were collected on Cycle 1 Day 1 (C1D1), Cycle 1 Day 28 (C1D28), and Cycle 2 Day 28 (C2D28). Preliminary pharmacokinetic parameters for the first 44 patients, i.e. the first 7 dosing groups, were estimated using nominal collection times and quality-controlled, non-quality assured bioanalytical data. The dosage amounts in Table 1A and Table 1B are free base equivalent amounts.

half-life (human, plasma, 200 mg, 200 mg QD (4/1), C1D1 (n = 6), plasma, read-out: t½, mean (% CV) (converted)): 18.8 h
AUC(0-t) (human, plasma, 200 mg, 200 mg QD (4/1), C1D28 (n = 5), plasma, read-out: AUC(0-24), mean (% CV)): 8210 ng·h/mL
concentration at 24 h (human, plasma, 200 mg, 200 mg QD (4/1), C1D28 (n = 5), plasma, read-out: C(trough, 24 h), mean (% CV)): 259 ng/mL
Cmax (human, plasma, 200 mg, 200 mg QD (4/1), C1D28 (n = 5), plasma, read-out: Cmax, mean (% CV)): 561 ng/mL
Tmax (human, plasma, 200 mg, 200 mg QD (4/1), C1D28 (n = 5), plasma): 6.6 h
half-life (human, plasma, 200 mg, 200 mg QD (4/1), C1D28 (n = 5), plasma, read-out: t½, mean (% CV) (converted)): 26.9 h
AUC(0-t) (human, plasma, 200 mg, 200 mg QD (4/1), C2D28 (n = 5), plasma, read-out: AUC(0-24), mean (% CV)): 6270 ng·h/mL
concentration at 24 h (human, plasma, 200 mg, 200 mg QD (4/1), C2D28 (n = 5), plasma, read-out: C(trough, 24 h), mean (% CV)): 211 ng/mL
Cmax (human, plasma, 200 mg, 200 mg QD (4/1), C2D28 (n = 5), plasma, read-out: Cmax, mean (% CV)): 375 ng/mL
Tmax (human, plasma, 200 mg, 200 mg QD (4/1), C2D28 (n = 5), plasma): 5.6 h
half-life (human, plasma, 200 mg, 200 mg QD (4/1), C2D28 (n = 5), plasma, read-out: t½, mean (% CV) (converted)): 15.3 h
concentration at 3 h (human, plasma, 250 mg QD, 250 mg QD 4/1 (n = 6), nominal time 3 h, read-out: Mean plasma concentration following the last dose on cycle 1 day 28): 250 ng/mL
concentration at 4 h (human, plasma, 250 mg QD, 250 mg QD 4/1 (n = 6), read-out: Mean plasma concentration following the last dose on cycle 1 day 28): 200 ng/mL
concentration at 6 h (human, plasma, 250 mg QD, 250 mg QD 4/1 (n = 6), nominal time 6 h, read-out: Mean plasma concentration following the last dose on cycle 1 day 28): 157 ng/mL
concentration at 8 h (human, plasma, 250 mg QD, 250 mg QD 4/1 (n = 6), nominal time 8 h, read-out: Mean plasma concentration following the last dose on cycle 1 day 28): 161 ng/mL
concentration at 10 h (human, plasma, 250 mg QD, 250 mg QD 4/1 (n = 6), nominal time 10 h, read-out: Mean plasma concentration following the last dose on cycle 1 day 28): 141 ng/mL
concentration at 0 h (human, plasma, 250 mg, 250 mg QD 4/1 (n = 6), nominal time 0 h, read-out: Mean plasma concentration following the last dose on cycle 1 day 28): 64.5 ng/mL
concentration at 1 h (human, plasma, 250 mg, 250 mg QD 4/1 (n = 6), nominal time 1 h, read-out: Mean plasma concentration following the last dose on cycle 1 day 28): 107 ng/mL
concentration at 2 h (human, plasma, 250 mg, 250 mg QD 4/1 (n = 6), nominal time 2 h, read-out: Mean plasma concentration following the last dose on cycle 1 day 28): 177 ng/mL
concentration at 20 h (human, plasma, 250 mg, 250 mg QD 4/1 (n = 6), nominal time 20 h, read-out: Mean plasma concentration following the last dose on cycle 1 day 28): 53.6 ng/mL
concentration at 24 h (human, plasma, 250 mg, 250 mg QD 4/1 (n = 6), nominal time 24 h, read-out: Mean plasma concentration following the last dose on cycle 1 day 28): 63 ng/mL
AUC(0-t) (human, plasma, 250 mg, 250 mg QD (4/1), C1D1 (n = 6), plasma, read-out: AUC(0-24), mean (% CV)): 7580 ng·h/mL
concentration at 24 h (human, plasma, 250 mg, 250 mg QD (4/1), C1D1 (n = 6), plasma, read-out: C(trough, 24 h), mean (% CV)): 143 ng/mL
Cmax (human, plasma, 250 mg, 250 mg QD (4/1), C1D1 (n = 6), plasma, read-out: Cmax, mean (% CV)): 848 ng/mL
Tmax (human, plasma, 250 mg, 250 mg QD (4/1), C1D1 (n = 6), plasma): 3.7 h
half-life (human, plasma, 250 mg, 250 mg QD (4/1), C1D1 (n = 6), plasma, read-out: t½, mean (% CV) (converted)): 11.5 h
AUC(0-t) (human, plasma, 250 mg, 250 mg QD (4/1), C1D28 (n = 4), plasma, read-out: AUC(0-24), mean (% CV)): 9810 ng·h/mL
concentration at 24 h (human, plasma, 250 mg, 250 mg QD (4/1), C1D28 (n = 4), plasma, read-out: C(trough, 24 h), mean (% CV)): 246 ng/mL
Cmax (human, plasma, 250 mg, 250 mg QD (4/1), C1D28 (n = 4), plasma, read-out: Cmax, mean (% CV)): 734 ng/mL
Tmax (human, plasma, 250 mg, 250 mg QD (4/1), C1D28 (n = 4), plasma): 4.5 h
half-life (human, plasma, 250 mg, 250 mg QD (4/1), C1D28 (n = 4), plasma, read-out: t½, mean (% CV) (converted)): 22.4 h
concentration at 24 h (human, plasma, 250 mg, 250 mg QD (4/1), C2D28 (n = 4), plasma, read-out: C(trough, 24 h), mean (% CV)): 279 ng/mL
Cmax (human, plasma, 250 mg, 250 mg QD (4/1), C2D28 (n = 4), plasma, read-out: Cmax, mean (% CV)): 748 ng/mL
Tmax (human, plasma, 250 mg, 250 mg QD (4/1), C2D28 (n = 4), plasma): 5.5 h
half-life (human, plasma, 250 mg, 250 mg QD (4/1), C2D28 (n = 4), plasma, read-out: t½, mean (% CV) (converted)): 13.2 h
half-life (human, plasma, 4/1 schedule, blood samples for 144 hours after the last dose on Day 28, across the dose groups, read-out: longer t1/2, mean estimates): 13.2 to 26.9 h
half-life (human, plasma, C1D1, across dose groups, read-out: mean terminal plasma half-life (t1/2) over 24 hours after dosing): 10.8 to 18.8 h
concentration at 12 h (human, plasma, oral, 25 mg QD, 25 mg QD 4/1 (n = 6), read-out: Mean plasma concentration following the last dose on cycle 1 day 28): 30.1 ng/mL
concentration at 4 h (human, plasma, oral, 25 mg, 25 mg QD 4/1 (n = 6), read-out: Mean plasma concentration following the last dose on cycle 1 day 28): 58.3 ng/mL
AUC(0-t) (human, plasma, oral, 25 mg, 25 mg QD (4/1), C2D28 (n = 5), plasma, read-out: AUC(0-24), mean (% CV)): 794 ng·h/mL
concentration at 24 h (human, plasma, oral, 25 mg, 25 mg QD (4/1), C2D28 (n = 5), plasma, read-out: C(trough, 24 h), mean (% CV)): 21.4 ng/mL
AUC(0-t) (human, plasma, oral, 25 mg, one patient excluded from the mean, 25 mg QD 4/1, C2D28, read-out: AUC(0-24)): 7000 ng·h/mL
Cmax (human, plasma, oral, 25 mg, one patient excluded from the mean, 25 mg QD 4/1, C2D28, read-out: Cmax): 394 ng/mL
concentration at 12 h (human, plasma, oral, 50 mg QD, 50 mg QD 4/1 (n = 5), read-out: Mean plasma concentration following the last dose on cycle 1 day 28): 50.4 ng/mL
concentration at 4 h (human, plasma, oral, 50 mg, 50 mg QD 4/1 (n = 5), read-out: Mean plasma concentration following the last dose on cycle 1 day 28): 81.1 ng/mL
concentration at 12 h (human, plasma, oral, 100 mg QD, 100 mg QD 4/1 (n = 6), read-out: Mean plasma concentration following the last dose on cycle 1 day 28): 204 ng/mL
concentration at 12 h (human, plasma, oral, 100 mg, 100 mg QD Continuous (n = 4), read-out: Mean plasma concentration following the last dose on cycle 1 day 28): 377 ng/mL
concentration at 12 h (human, plasma, oral, 150 mg QD, 150 mg QD 4/1 (n = 5), read-out: Mean plasma concentration following the last dose on cycle 1 day 28): 91.3 ng/mL
concentration at 4 h (human, plasma, oral, 150 mg, 150 mg QD 4/1 (n = 5), read-out: Mean plasma concentration following the last dose on cycle 1 day 28): 231 ng/mL
concentration at 12 h (human, plasma, oral, 150 mg, 150 mg QD Continuous (n = 6), read-out: Mean plasma concentration following the last dose on cycle 1 day 28): 465 ng/mL
concentration at 12 h (human, plasma, oral, 200 mg, 200 mg QD 4/1 (n = 5), read-out: Mean plasma concentration following the last dose on cycle 1 day 28): 355 ng/mL
concentration at 12 h (human, plasma, oral, 250 mg, 250 mg QD 4/1 (n = 6), read-out: Mean plasma concentration following the last dose on cycle 1 day 28): 130 ng/mL
AUC(0-t) (human, plasma, oral, 250 mg, 250 mg QD (4/1), C2D28 (n = 4), plasma, read-out: AUC(0-24), mean (% CV)): 9770 ng·h/mL
half-life (human, plasma, oral, patients with solid tumors, read-out: effective t1/2 of elimination from plasma): 11 to 19 h
concentration at 1 week (human, extrapolating beyond the measured plasma concentrations at 144 hours, rest period after the last dose of Cycle 1, read-out: concentration prior to the start of dosing in the following cycle): < 5 ng/mL
higher exposures on C2D28 compared with C1D28 (one patient excluded from the mean, 25 mg QD 4/1): approximately 5 fold
accumulation of the drug with continuous dosing: no unexpected accumulation
accumulation of the drug with continuous dosing (listed as compound of formula 1): no unexpected drug accumulation
SMILES: Cc1[nH]c(/C=C2\C(=O)Nc3ccc(F)cc32)c(C)c1C(=O)NC[C@H](O)CN1CCOCC1 [compound 1, 5-[(Z)-(5-fluoro-2-oxo-1,2-dihydro-3H-indol-3-ylidene)methyl]-N-[(2S)-2-hydroxy-3-morpholin-4-ylpropyl]-2,4-dimethyl-1H-pyrrole-3-carboxamide]
